# According to patent US8653096B2, “Chemokine receptor antagonists and methods of use thereof” (Millennium Pharmaceuticals, Inc., priority 2001, dated 2014):
# pIC50: −log10 of the molar value.
# Target: T1, RANTES/MIP-1α chemokine receptor (CCR1) in THP-1 cell membranes (Homo sapiens, UniProt P32246)
# T1 construct: Membranes were prepared from THP-1 cells (ATCC #TIB202); host or cells: THP-1 cells (membrane preparation)
# T1 sequence (P32246 1-355): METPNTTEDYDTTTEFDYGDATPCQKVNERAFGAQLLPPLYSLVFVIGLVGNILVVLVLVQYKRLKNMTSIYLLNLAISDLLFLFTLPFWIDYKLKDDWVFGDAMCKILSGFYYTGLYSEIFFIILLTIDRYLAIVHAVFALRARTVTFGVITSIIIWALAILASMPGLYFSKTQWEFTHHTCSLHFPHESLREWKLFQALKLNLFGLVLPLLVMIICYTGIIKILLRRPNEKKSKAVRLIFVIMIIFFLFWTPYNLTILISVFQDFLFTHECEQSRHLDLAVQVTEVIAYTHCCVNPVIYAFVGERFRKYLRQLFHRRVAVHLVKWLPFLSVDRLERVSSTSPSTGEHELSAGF
# Assay: Receptor binding assay: 125I-RANTES or 125I-MIP-1α binding to THP-1 cell membranes
# Conditions: inhibitor concentration required for 50% inhibition of specific binding; 125I-RANTES or 125I-MIP-1α as ligand, THP-1 cell membranes; read-out: IC50
row,Compound,pIC50
1,"CC1(C)CN(CCC=C2c3cc(O)ccc3OCc3ncccc32)CCC1(O)c1ccc(Cl)cc1 (stereo not shown) [Example 509, 5-{3-[4-(4-Chloro-phenyl)-4-hydroxy-3,3-dimethyl-piperidin-1-yl]-propylidene}-5,11-dihydro-10-oxa-1-aza-dibenzo[a,d]cyclohepten-7-ol]",> 6.00
2,"CCOC(=O)C(C)(C)Oc1ccc2c(c1)C(=CCCN1CCC(O)(c3ccc(Cl)cc3)C(C)(C)C1)c1cccnc1CO2 (stereo not shown) [Example 510, 2-(5-{3-[4-(4-Chloro-phenyl)-4-hydroxy-3,3-dimethyl-piperidin-1-yl]-propylidene}-5,11-dihydro-10-oxa-1-aza-dibenzo[a,d]cyclohepten-7-yloxy)-2-methyl-propionic acid ethyl ester]",> 6.00
3,"CC(C)(CO)Oc1ccc2c(c1)C(=CCCN1CCC(O)(c3ccc(Cl)cc3)C(C)(C)C1)c1cccnc1CO2 (stereo not shown) [Example 511, 4-(4-Chloro-phenyl)-1-{3-[7-(2-hydroxy-1,1-dimethyl-ethoxy)-11H-10-oxa-1-aza-dibenzo[a,d]cyclohepten-5-ylidene]-propyl}-3,3-dimethyl-piperidin-4-ol]",> 6.00
4,"CC(C)(Oc1ccc2c(c1)C(=CCCN1CCC(O)(c3ccc(Cl)cc3)C(C)(C)C1)c1cccnc1CO2)C(=O)O (stereo not shown) [Example 512, 2-(5-{3-[4-(4-Chloro-phenyl)-4-hydroxy-3,3-dimethyl-piperidin-1-yl]-propylidene}-5,11-dihydro-10-oxa-1-aza-dibenzo[a,d]cyclohepten-7-yloxy)-2-methyl-propionic acid]",> 6.00
5,"CC(C)(Oc1ccc2c(c1)C(=CCCN1CCC(O)(c3ccc(Cl)cc3)C(C)(C)C1)c1cccnc1CO2)C(N)=O (stereo not shown) [Example 513, 2-(5-{3-[4-(4-Chloro-phenyl)-4-hydroxy-3,3-dimethyl-piperidin-1-yl]-propylidene}-5,11-dihydro-10-oxa-1-aza-dibenzo[a,d]cyclohepten-7-yloxy)-2-methyl-propionamide]",> 6.00
6,"COC(=O)COc1ccc2c(c1)C(=CCCN1CCC(O)(c3ccc(Cl)cc3)C(C)(C)C1)c1cccnc1CO2 (stereo not shown) [Example 514, (5-{3-[4-(4-Chloro-phenyl)-4-hydroxy-3,3-dimethyl-piperidin-1-yl]-propylidene}-5,11-dihydro-10-oxa-1-aza-dibenzo[a,d]cyclohepten-7-yloxy)-acetic acid methyl ester]",> 6.00
7,"CC1(C)CN(CCC=C2c3cc(OCC(=O)O)ccc3OCc3ncccc32)CCC1(O)c1ccc(Cl)cc1 (stereo not shown) [Example 515, (5-{3-[4-(4-Chloro-phenyl)-4-hydroxy-3,3-dimethyl-piperidin-1-yl]-propylidene}-5,11-dihydro-10-oxa-1-aza-dibenzo[a,d]cyclohepten-7-yloxy)-acetic acid]",> 6.00
8,"CC1(C)CN(CCC=C2c3cc(OCC(N)=O)ccc3OCc3ncccc32)CCC1(O)c1ccc(Cl)cc1 (stereo not shown) [Example 516, 2-(5-{3-[4-(4-Chloro-phenyl)-4-hydroxy-3,3-dimethyl-piperidin-1-yl]-propylidene}-5,11-dihydro-10-oxa-1-aza-dibenzo [a,d]cyclohepten-7-yloxy)-acetamide]",> 6.00
9,"CC(C)(O)COc1ccc2c(c1)C(=CCCN1CCC(O)(c3ccc(Cl)cc3)C(C)(C)C1)c1cccnc1CO2 (stereo not shown) [Example 517, 4-(4-Chloro-phenyl)-1-{3-[7-(2-hydroxy-2-methyl-propoxy)-11H-10-oxa-1-aza-dibenzo[a,d]cyclohepten-5-ylidene]-propyl}-3,3-dimethyl-piperidin-4-ol]",> 6.00
10,"CC1(C)CN(CCC=C2c3cc(CC(O)CO)ccc3OCc3ncccc32)CCC1(O)c1ccc(Cl)cc1 (stereo not shown) [Example 518, 3-(5-{3-[4-(4-Chloro-phenyl)-4-hydroxy-3,3-dimethyl-piperidin-1-yl]-propylidene}-5,11-dihydro-10-oxa-1-aza-dibenzo[a, d]cyclohepten-7-yl)propane-1,2-diol]",> 6.00
